Assay results as given in publication PMC7214099 (Cell reports, 2020).

System: IAV PA 1–192 aa endonuclease
Type: binding

O=C1c2c(O)c(=O)ccn2N([C@@H]2c3ccccc3SCc3c2ccc(F)c3F)[C@@H]2COCCN12 [BXA, Baloxavir acid]
increase in thermostability of IAV endonuclease: 28.1 °C
